Measurements published in ChEMBL document CHEMBL3507680, “University of Dundee, Gates Library screen for HepG2 cell viability”.

Test: Human HepG2 cell viability assay in 384 well format
Assay type: toxicity, cell-based
Design: dose 125 nL, time 70.5 hour; cytotoxicity at 70.5 h: concentration not given beside the values
Settings: HepG2 cells, read-out: Inhibition

SMILES	cytotoxicity at 70.5 h
CC(C)Oc1ccc(C(=O)N2CCC(Nc3cccnn3)CC2)cn1	-5.88%
COCCN(C)CC1CCCN1S(=O)(=O)Cc1ccccc1F (stereo not drawn)	13.2%
CC(=O)N1CCC2(CCN(Cc3ccccn3)C2=O)C1 (stereo not drawn)	3.63%
COCCN(C)C(=O)c1nc2c(s1)CCCN2c1ccc(C)nn1	-1.66%
COc1c(CNCCNC(=O)c2cccs2)c(C)nn1C	-10.5%
CC(C)NC(=O)[C@H]1C[C@H]2OCC[C@H]2N(Cc2ccc3ccccc3n2)C1	-0.387%
F[C@@H]1CN(Cc2nccs2)C[C@@H]1OCc1nc2cnccc2[nH]1	-3.2%
CN(CCC#N)C(=O)CSc1cc(F)ccc1F	5.2%
CCc1cc(N2CCC(NCCc3ccc(C)o3)CC2)nc(C)n1	-16.4%
O=C(NCCn1ccnc1)NCC(c1ccco1)N1CCCCC1 (stereo not drawn)	-9.78%
CC(C)(C)c1cnc(CN2CCCCC2Cn2cccn2)o1 (stereo not drawn)	18.8%
Cc1c(S(=O)(=O)NCC(C)Cn2cc(Cl)cn2)cnn1C (stereo not drawn)	1.36%
CC(C)NC(=O)N1CCC2(CC1)Cc1ccccc1CN(C)C2=O	-2.79%
CN(C)S(=O)(=O)c1ccc(F)c(NC(=O)COCC2CC2)c1	-10.8%
OC1CCN(c2nc(-c3ccccc3)no2)CC1	-11.6%
c1cc(CN2C[C@H](OCC3CCOCC3)[C@H]3COC[C@H]32)co1	12.4%
Cc1cc(C(=O)N2CCc3[nH]cnc3C2C(=O)O)c(-c2ccccc2)o1 (stereo not drawn)	-3.87%
Cn1ccnc1C(=O)NC[C@@H]1OC[C@H]2CN(CC3CC3)CC[C@H]21	-9.31%
Cc1cc(=O)n(C)cc1NC(=O)NCc1cccc(F)c1	-2.73%
O=C(c1ccccc1Cl)N1CCN(CCc2ccccn2)CC1	-5.74%
COc1cccc(CN2CCC3(CCN(c4ncc(F)cn4)CC3)C2)c1	0.663%
CNc1ccc(CC2CCCN(C(=O)c3cnc(C)nc3)C2)nn1 (stereo not drawn)	-6.58%
CCN(CC)C(CNC(=O)c1ccc(S(=O)(=O)NC)cc1)c1ccco1 (stereo not drawn)	0.103%

SMILES	cytotoxicity at 70.5 h
O=C1NCCN1C1CCN(Cc2nc(-c3ccccc3)no2)CC1	13.9%
CN(C)c1ccc(C(O)CNC(=O)NCCCc2ccccc2)cc1 (stereo not drawn)	-9.74%
Cc1nc(C)n(C2CCCN(C(=O)c3cncnc3C)C2)n1 (stereo not drawn)	2.45%
O=C1CCC2(CCOC2)CN1Cc1nc2ccc(Cl)cc2[nH]1 (stereo not drawn)	-1.72%
Cc1ncsc1CCN(C)C1CCN(c2ncnc3[nH]cnc23)CC1	-6.66%
Cc1ccc2ncn(CC(O)CN3CCC(C)CC3)c(=O)c2c1 (stereo not drawn)	19.7%
CCc1cc(N2CCCC(CC)(C(=O)O)C2)nc(N2CCOCC2)n1 (stereo not drawn)	13.3%
O=c1[nH]nc2nc(N3CCCC3)ccn12	5.61%
CN(C)c1ccc(C(=O)N(CCO)CC2CC2)c(F)c1	30.4%
Cc1ccc2cc(C(=O)N3CCS(=O)(=O)CC3)[nH]c2c1	-12.3%
COCCn1ccc(NCc2cc3cc(F)ccc3o2)n1	-6.3%
O=C1COC2(CCN(C(=O)c3cnccn3)CC2)CN1CC1CC1	18.8%
O=C(NC[C@H]1OC[C@@H](NC2CCC(F)(F)CC2)[C@@H]1O)c1ccccc1	-0.0244%
CN(C)c1nc2c(c(=O)[nH]1)CCN(C(=O)C1CCCO1)C2 (stereo not drawn)	-8.42%
Cc1ccc(CN2CCC3(C2)C(=O)N(CC(N)=O)c2ccccc23)s1 (stereo not drawn)	-3.49%
O=C(CNC(=O)N1CCN(c2cccc(Cl)c2)CC1)Nc1ccccn1	-9.74%
Cc1nn(C)c(C)c1NC(=O)CNc1cccc(CC(F)(F)F)c1	-1.15%
CCn1nc(CC(C)C)cc1C(=O)NCCCOC	-0.898%
O=C(NCc1nn(-c2ccccc2)c2c1CCC2)C1CC1	-3.11%
CN(C)c1nc2c(c(N3CCc4ccccc4C3)n1)CCNC2	0.802%
CC(C)C(NC(=O)c1nc(N2CCOCC2)ncc1Cl)c1cccs1 (stereo not drawn)	-9.67%
Cc1ccc(N2CC3(COCCN(Cc4ccccn4)C3)OCC2=O)s1 (stereo not drawn)	-1.36%
N#Cc1ccc(NCC(=O)Nc2ccn(Cc3cccnc3)n2)cc1	-9.9%

SMILES	cytotoxicity at 70.5 h
Cc1ccc(C)c(S(=O)(=O)CCN2CCCC2Cn2cccn2)c1 (stereo not drawn)	-7.12%
O=C(COC1CCCCC1)Nc1ccn(Cc2cccnc2)n1	-7.64%
CCC(C)NC(=O)c1ccn(COc2ccccc2Cl)n1 (stereo not drawn)	-1.06%
CCS(=O)(=O)N1CCn2c(COCC3CCOCC3)cnc2C1C (stereo not drawn)	-5.13%
Cc1cnn(CC2CN(c3ccc(C#N)cn3)CCO2)c1 (stereo not drawn)	23.6%
Cc1noc(C)c1CN1C[C@@H]2COC[C@@H](C(=O)N3CCCO3)[C@@H]2C1	51.2%
CS(=O)(=O)N1CCCC(Cc2cnc(Br)cn2)CC1 (stereo not drawn)	13.7%
CCOCC1CN(CCN2CCCCC2)Cc2cnn(C)c21 (stereo not drawn)	2.16%
CS(=O)(=O)N1CC[C@H]2C[C@@H](C(=O)N3CCOCC3)O[C@@H]2C1	2.65%
CN(CCCOc1ccccc1)C(=O)CN1CCc2cncnc2C1	8.28%
Cc1cccc(C(=O)N2CC(C(=O)NCC3CC3)C3(CCOCC3)C2)n1 (stereo not drawn)	-2.96%
c1cnnc(NCC2CN(CC3CCOCC3)CCO2)c1 (stereo not drawn)	-5.6%
O=C(C1CCCC1)N1CC2(CCN(C3COC3)CC2)Cc2ccccc21	-21%
CCN(CC)C(=O)COc1ccnc2cc(OC)ccc12	-19.4%
CNC(=O)CN1CCOCC2(C1)CN(C(=O)C(C)C)CCO2 (stereo not drawn)	-9.58%
COC1CCN(C(=O)Cc2csc(-c3ccccc3)n2)CC1	-5.23%
CCc1nnsc1C(=O)N1CCOC(c2nc(C(C)C)n[nH]2)C1 (stereo not drawn)	-2.32%
CN(C)[C@@H]1CCN(S(=O)(=O)C2CC2)[C@H]1Cc1ccccc1	1.77%
CNC(=O)[C@H]1C[C@@H]2CN(C(=O)c3cncc(C)c3)C[C@@H]2N1C	-16.6%
c1ccc(CN2CCC(NCCSc3cnn[nH]3)CC2)cc1	2.48%
CC(C)c1cc(NCC(O)c2ccccn2)n2nccc2n1 (stereo not drawn)	-8.96%
CC(Oc1ccccc1C(F)(F)F)C(=O)NCC(N)=O (stereo not drawn)	-1.2%
O=C(c1cnc2c(c1)CCC2)N1CCCC(CO)(CC2CC2)C1 (stereo not drawn)	-9.59%

SMILES	cytotoxicity at 70.5 h
Cc1cc(C2CCCN2c2ncc(C(N)=O)cc2Cl)no1 (stereo not drawn)	-0.208%
CCSCc1nc(O)c2nnn(C3CCN(Cc4ccco4)CC3)c2n1	9.06%
CN1C(=O)CCCC12CCCN(Cc1nccs1)C2 (stereo not drawn)	9.31%
Cc1cccc(CN2CCC3(CC2)NC(=O)CC3c2ccccc2)n1 (stereo not drawn)	-7.81%
O=C(NCc1ccc(-n2cncn2)nc1)c1ccc2c(c1)CCC2	0.85%
Cc1cc(C(=O)N2CCn3cc(CN4CCCC4)nc3C2)no1	-13.3%
CN(Cc1nncn1C)c1nccc(N2CCC(O)CC2)n1	-4.03%
Cc1cc(CN(C)C(=O)C2CCC(=O)N(CC3CCCCC3)C2)n[nH]1 (stereo not drawn)	-8.5%
CCOCCCNC(=O)Cc1cccc(F)c1	1.71%
Cn1cc(C2CCCN2C(=O)CS(=O)(=O)C2CCCC2)cn1 (stereo not drawn)	-8.05%
COc1c(C)cnc(CN2CCC(N(C)C(C)C(N)=O)CC2)c1C (stereo not drawn)	-2.64%
Cc1cc(N2CCC(O)(C(=O)O)CC2)nc2ccccc12	-11%
Cc1cnn(CC2CCCN2C(=O)c2ccc3cc[nH]c3c2)c1 (stereo not drawn)	0.784%
CCOc1nnc(CN(C)C2CCCN(c3ccc(C)nn3)C2)s1 (stereo not drawn)	-3.1%
CN(C)Cc1ccc(C(=O)N2CCCC(COc3ccc(F)cc3)C2)o1 (stereo not drawn)	-5.29%
Nc1cc2c(nn1)CCN(C(=O)CCC1CCCCC1)C2	-11.1%
O=C1NCCCc2[nH]c(-c3nc(C4CCCCC4)no3)nc21	8.47%
O=C(Nc1ccc(Cn2cccn2)cc1)N1CCC(CO)CC1	-5.76%
NCc1cnn(-c2ccccc2C(=O)NCc2ccccc2Cl)c1	-2.58%
Cc1ccc(N(C)[C@@H]2CC[C@@H]3CN(C(=O)C4CCOCC4)C[C@@H]32)nn1	-6.01%
Cc1nc(CN(CCS(C)(=O)=O)C(C)C)cs1	-8.28%
CSCC(=O)N(C)Cc1cnn(-c2ccc(F)cc2)c1	3.1%
Cc1cccc(C(=O)N2CCN(c3ccc(-n4cccc4)nn3)CC2)c1	-7.5%

SMILES	cytotoxicity at 70.5 h
CNC(=O)C1(N2CCC[C@H]2C(=O)NC2CCOCC2)CCOCC1	-6.78%
Cn1ncc2c(=O)[nH]c(CN(Cc3ccco3)C3CCCC3)nc21	-0.279%
O=C(Cc1c(F)cccc1Cl)N1CCC(Nc2cccnn2)CC1	-1.25%
Cc1ncnc2c1CCN(c1cc(C(F)(F)F)ncn1)CC2	-17.8%
Cc1ncsc1CN1C[C@@H]2CN(S(C)(=O)=O)CCO[C@@H]2C1	-7.53%
Cc1ccc(N(C)S(=O)(=O)c2cc(C(=O)O)cs2)cc1	4.32%
O=C(NCCn1ccnc1)c1cncc(Br)c1	19.8%
Cn1cc(-c2nnn3c2COC(CNC(=O)c2cccs2)C3)cn1 (stereo not drawn)	22.3%
CCOC(=O)CSc1ccc(-c2nc(CC)no2)cn1	-2.21%
O=C(Nc1ccc(I)cc1C(=O)NCCN1CCOCC1)c1ccco1	8.88%
Cc1nc(COc2ccc(OCC(N)=O)cc2)oc1C	-8.19%
CN(C)[C@@H]1CN(C(=O)Cc2cccs2)[C@@H]2CCCO[C@H]12	-5.81%
CCc1nc2c(s1)C(N(C)C(C)=O)CCC2 (stereo not drawn)	-7.14%
O=C(c1ccc(SC(F)F)cc1)N1CCOCC1c1ncon1 (stereo not drawn)	-3.71%
Cc1cnn(C2CCCN(C(=O)c3ccc(N(C)C)nn3)C2)c1 (stereo not drawn)	-10.7%
CCCn1cc(C(=O)NC(CC(=O)O)c2ccco2)c(C)n1 (stereo not drawn)	-8.82%
CC(NC(=O)C1CN(c2ncnc3c2nnn3C)C1)c1ccccc1 (stereo not drawn)	-16.6%
Cc1cc2cc(C(=O)N[C@@H]3CC[C@@H](N4CCNC(=O)C4)[C@@H]3O)ccc2o1	-7.85%
O=C(Nc1ccc(Br)cc1F)c1ccc(N2CCOCC2)nn1	-6.45%
O=C(NCc1ccc(CN2CCCC2)cc1)NC1(CO)CCCC1	2.2%
COCCc1nnc(NC(=O)CSCc2ccccc2)o1	1.82%
